Laboratory results reported in ChEMBL document CHEMBL6134814, “Asiatic acid and its derivatives: Pharmacological insights and applications” (Eur J Med Chem, 2025).

Legend:
HT-29 [1] = test: Cytotoxicity against human HT-29 cells assessed as reduction in cell growth incubated for 72 hrs by SRB assay; assay type: functional, cell-based; conditions: HT-29, 72 h
A2780 [2] = test: Cytotoxicity against human A2780 cells assessed as reduction in cell growth incubated for 72 hrs by SRB assay; assay type: functional, cell-based; conditions: A2780, 72 h
A-375 [3] = test: Cytotoxicity against human A-375 cells assessed as reduction in cell growth incubated for 72 hrs by SRB assay; assay type: functional, cell-based; conditions: A-375, 72 h
MCF7 [4] = test: Cytotoxicity against human MCF7 cells assessed as reduction in cell growth incubated for 72 hrs by SRB assay; assay type: functional, cell-based; conditions: MCF7, 72 h
SK-LU-1 = test: Cytotoxicity against human SK-LU-1 cells assessed as reduction in cell viability incubated for 48 hrs by MTT assay; assay type: functional, cell-based; conditions: SK-LU-1, 48 h
HepG2 [5] = test: Cytotoxicity against human HepG2 cells assessed as reduction in cell viability incubated for 48 hrs by MTT assay; assay type: functional, cell-based; conditions: HepG2, 48 h
KB = test: Cytotoxicity against human KB cells assessed as reduction in cell viability incubated for 48 hrs by MTT assay; assay type: functional, cell-based
BGC-823 = test: Antiproliferative activity against human BGC-823 cells; assay type: functional, cell-based
HepG2 [6] = test: Antiproliferative activity against human HepG2 cells; assay type: functional, cell-based
HeLa = test: Antiproliferative activity against human HeLa cells; assay type: functional, cell-based
K562 = test: Cytotoxicity against human K562 cells assessed as reduction in cell viability incubated for 24 hrs by MTT assay; assay type: functional, cell-based; conditions: K562, 24 h
MIA PaCa-2 = test: Antiproliferative activity against human MIA PaCa-2 cells assessed as reduction in cell growth incubated for 72 hrs by MTT assay; assay type: functional, cell-based; conditions: MIA PaCa-2, 72 h
Jurkat = test: Antiproliferative activity against human Jurkat cells assessed as reduction in cell growth incubated for 72 hrs by XTT assay; assay type: functional, cell-based
PC-3 = test: Antiproliferative activity against human PC-3 cells assessed as reduction in cell growth incubated for 72 hrs by MTT assay; assay type: functional, cell-based; conditions: PC-3, 72 h
A-375 [7] = test: Antiproliferative activity against human A-375 cells assessed as reduction in cell growth incubated for 72 hrs by MTT assay; assay type: functional, cell-based; conditions: A-375, 72 h
[8] = Inhibition of alpha-glucosidase (unknown origin); parameters: species or system Homo sapiens
[9] = Antiproliferative activity against human PC9 Gefitinib-resistant (GR) cell assessed as reduction in cell viability incubated for 72 hrs by CCK-8 assay; assay type: functional, cell-based
A549 = test: Antiproliferative activity against human A549 cells assessed as reduction in cell viability incubated for 72 hrs by CCK-8 assay; assay type: functional, cell-based; conditions: A549, 72 h
HL-60 = test: Cytotoxicity against human HL-60 cells assessed as reduction in cell growth incubated for 72 hrs by MTT assay; assay type: functional, cell-based; conditions: HL-60, 72 h
MCF7 [10] = test: Cytotoxicity against human MCF7 cells assessed as reduction in cell growth incubated for 72 hrs by MTT assay; assay type: functional, cell-based; conditions: MCF7, 72 h
HCT-116 [11] = test: Cytotoxicity against human HCT-116 cells assessed as reduction in cell growth incubated for 72 hrs by MTT assay; assay type: functional, cell-based; conditions: HCT-116, 72 h
HepG2 [12] = test: Cytotoxicity against human HepG2 cells assessed as reduction in cell growth incubated for 72 hrs by MTT assay; assay type: functional, cell-based; conditions: HepG2, 72 h
A2780 [13] = test: Cytotoxicity against human A2780 cells assessed as reduction in cell growth incubated for 72 hrs by MTT assay; assay type: functional, cell-based; conditions: A2780, 72 h
Hepatocyte [14] = test: Hepatoprotective activity against CCl4-induced liver injury in male Wistar rat hepatocytes assessed as at 50 uM relative to control; assay type: functional
Hepatocyte [15] = test: Hepatoprotective activity against glucosamine-induced liver injury in rat hepatocytes assessed as at 50 uM relative to control; assay type: functional
OVCAR-3 = test: Anticancer activity against human OVCAR-3 cells assessed as reduction in cell growth at 40 microg/ml incubated for 72 hrs by MTT assay relative to control; assay type: functional; parameters: scale not given: the % may be the effect or the level left; conditions: dose 40 µg/ml
SK-OV-3 [16] = test: Anticancer activity against human SK-OV-3 cells assessed as reduction in cell growth at 40 microg/ml incubated for 72 hrs by MTT assay relative to control; assay type: functional; parameters: scale not given: the % may be the effect or the level left; conditions: dose 40 µg/ml
HepG2 [17] = test: Antiproliferative activity against human HepG2 cells assessed as reduction in cell viability incubated for 72 hrs by MTT assay; assay type: functional, cell-based; conditions: HepG2, 72 h
SGC-7901 [18] = test: Antiproliferative activity against human SGC-7901 cells assessed as reduction in cell viability incubated for 72 hrs by MTT assay; assay type: functional, cell-based; conditions: SGC-7901, 72 h
HCT-116 [19] = test: Cytotoxicity against human HCT-116 cells assessed as reduction in cell viability incubated fro 48 hrs by MTT assay; assay type: functional, cell-based; conditions: HCT-116, 48 h
[20] = Cytotoxicity against human SPCA1 cells assessed as reduction in cell viability incubated fro 48 hrs by MTT assay; assay type: functional, cell-based; conditions: SPCA1, 48 h
SK-OV-3 [21] = test: Cytotoxicity against human SK-OV-3 cells assessed as reduction in cell viability incubated fro 48 hrs by MTT assay; assay type: functional, cell-based; conditions: SK-OV-3, 48 h
B16-F10 = test: Anticancer activity against mouse B16-F10 cells assessed as reduction in cell growth incubated for 72 hrs by CCK-8 assay; assay type: functional, cell-based; conditions: B16-F10, 72 h
Carbonic anhydrase 9 = Carbonic anhydrase 9 (Homo sapiens, UniProt Q16790); test: Binding affinity to human carbonic anhydrase 9 assessed as inhibition constant
Carbonic anhydrase 1 = Carbonic anhydrase 1 (Homo sapiens, UniProt P00915); test: Binding affinity to human carbonic anhydrase I assessed as inhibition constant
Chain of Carbonic anhydrase 1 (P00915 whole entry): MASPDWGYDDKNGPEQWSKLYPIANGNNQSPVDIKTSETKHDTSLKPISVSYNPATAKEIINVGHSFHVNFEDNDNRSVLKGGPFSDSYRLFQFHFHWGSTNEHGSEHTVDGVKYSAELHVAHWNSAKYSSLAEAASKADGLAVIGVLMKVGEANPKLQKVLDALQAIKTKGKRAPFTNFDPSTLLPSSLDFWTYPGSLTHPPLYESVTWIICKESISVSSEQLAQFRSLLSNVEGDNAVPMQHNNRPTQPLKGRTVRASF

Carbonic anhydrase 2 = Carbonic anhydrase 2 (Homo sapiens, UniProt P00918); test: Binding affinity to human carbonic anhydrase 2 assessed as inhibition constant
[22] = molecular target: Carbonic anhydrase 5A, mitochondrial (Homo sapiens, UniProt P35218); test: Binding affinity to human carbonic anhydrase 5A assessed as inhibition constant
Chain of Carbonic anhydrase 5A, mitochondrial (P35218 whole entry): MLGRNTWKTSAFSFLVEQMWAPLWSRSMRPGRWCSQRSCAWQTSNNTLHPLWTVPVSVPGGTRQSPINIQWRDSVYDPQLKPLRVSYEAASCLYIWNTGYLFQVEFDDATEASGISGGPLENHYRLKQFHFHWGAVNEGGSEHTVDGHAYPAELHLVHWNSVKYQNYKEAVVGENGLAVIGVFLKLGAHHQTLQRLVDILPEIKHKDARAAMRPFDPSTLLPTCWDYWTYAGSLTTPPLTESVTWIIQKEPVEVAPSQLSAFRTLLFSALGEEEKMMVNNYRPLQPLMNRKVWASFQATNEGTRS

HT-29 [23] = test: Antiproliferative activity against human HT-29 cells assessed as reduction in cell viability incubated for 72 hrs by MTT assay; assay type: functional, cell-based; conditions: HT-29, 72 h
HepG2 [24] = test: Antiproliferative activity against human HepG2 cells assessed as reduction in cell viability incubated for 48 hrs by MTT assay; assay type: functional, cell-based; conditions: HepG2, 48 h
SGC-7901 [25] = test: Antiproliferative activity against human SGC-7901 cells assessed as reduction in cell viability incubated for 48 hrs by MTT assay; assay type: functional, cell-based; conditions: SGC-7901, 48 h

Structure (SMILES): CC(=O)O[C@@H]1C[C@@]2(C)[C@@H](CC[C@]3(C)[C@@H]2CC=C2[C@@H]4[C@@H](C)[C@H](C)CC[C@]4(C(=O)N4CCCN(C(=O)c5ccccc5-c5c6ccc(=[N+](CCO)CCO)cc-6oc6cc(N(CCO)CCO)ccc56)CCC4)CC[C@]23C)[C@](C)(OC(C)=O)[C@H]1OC(C)=O
- IC50 (HT-29 [1]): 0.012 µM
- IC50 (A2780 [2]): 0.0019 µM
- IC50 (A-375 [3]): 0.0074 µM
- IC50 (MCF7 [4]): 0.017 µM

Structure (SMILES): CCOC(=O)CNC(=O)[C@]12CC[C@@H](C)[C@H](C)[C@H]1C1=CC[C@@H]3[C@@]4(C)C[C@@H](OC(C)=O)[C@H](OC(C)=O)[C@@](C)(COC(C)=O)[C@@H]4CC[C@@]3(C)[C@]1(C)CC2
- IC50 (SK-LU-1): 1.39 µM
- IC50 (HepG2 [5]): 1.99 µM
- IC50 (KB): 1.39 µM

Structure (SMILES): CC(=O)OC[C@@]1(C)[C@@H]2CC[C@]3(C)[C@H](C(=O)C=C4[C@@H]5[C@@H](C)[C@H](C)CC[C@]5(C(=O)OCCO)CC[C@]43C)[C@@]2(C)C[C@@H](OC(C)=O)[C@@H]1OC(C)=O
- IC50 (BGC-823): 8.75 µM
- IC50 (HepG2 [6]): 6.84 µM
- IC50 (HeLa): 4.78 µM

Structure (SMILES): C[C@H]1[C@H](C)CC[C@]2(C(=O)OCc3ccccc3)CC[C@]3(C)C(=CC[C@@H]4[C@@]5(C)C[C@@H](O)[C@H](O)[C@@](C)(CO)[C@@H]5CC[C@]43C)[C@H]12
- IC50 (K562): 4.1 µM

Structure (SMILES): COC(=O)[C@]12CC[C@@H](C)[C@H](C)[C@H]1C1=CC(=O)[C@@H]3[C@@]4(C)C(C=O)=C[C@@](C)(COS(C)(=O)=O)[C@@H]4CC[C@@]3(C)[C@]1(C)CC2
- IC50 (MIA PaCa-2): 0.46 µM
- IC50 (Jurkat): 0.11 µM
- IC50 (PC-3): 0.42 µM
- IC50 (A-375 [7]): 0.25 µM

Structure (SMILES): CC(N)C(=O)N1CCN(C(=O)[C@]23CC[C@@H](C)[C@H](C)[C@H]2C2=CC[C@@H]4[C@@]5(C)C[C@@H](O)[C@H](O)[C@@](C)(CO)[C@@H]5CC[C@@]4(C)[C@]2(C)CC3)CC1 (stereo not given in full)
- IC50 [8]: 1190 µM

Structure (SMILES): C[C@H]1[C@H](C)CC[C@]2(C(=O)O)CC[C@]3(C)C(=CC[C@@H]4[C@@]5(C)C[C@@H](OC(=O)CCC(=O)O)[C@@H]6OC(C)(C)OC[C@@]6(C)[C@@H]5CC[C@]43C)[C@H]12
- IC50 [9]: 25.6 µM
- IC50 (A549): 26 µM

Structure (SMILES): COC(=O)[C@@]1(C)[C@@H]2CC[C@]3(C)[C@H](CC=C4[C@@H]5[C@@H](C)[C@H](C)CC[C@]5(C(=O)Nc5ccccc5)CC[C@]43C)[C@@]2(C)C[C@@H](OC)[C@@H]1OC(C)=O
- IC50 (HL-60): 0.48 µM
- IC50 (MCF7 [10]): 3.99 µM
- IC50 (HCT-116 [11]): 1.08 µM
- IC50 (HepG2 [12]): 1.43 µM
- IC50 (A2780 [13]): 1.28 µM

Structure (SMILES): C[C@H]1[C@H](C)CC[C@]2(C(=O)O)CC[C@]3(C)C(=CC[C@@H]4[C@@]5(C)CC[C@H](O)[C@@](C)(CO)[C@@H]5CC[C@]43C)[C@H]12
- Activity (Hepatocyte [14]): 58.3%

Structure (SMILES): COC(=O)[C@]12CC[C@@H](C)[C@H](C)[C@H]1C1=CC[C@@H]3[C@@]4(C)C[C@@H](OC(C)=O)C(=O)[C@@](C)(CC(=O)O)[C@@H]4CC[C@@]3(C)[C@]1(C)CC2
- Activity (Hepatocyte [15]): 66.4%

Structure (SMILES): C[C@H]1[C@H](C)CC[C@]2(C(=O)O)CC[C@]3(C)C(=CC[C@@H]4[C@@]5(C)C[C@@H](O)[C@H](O)[C@@](C)(CO)[C@@H]5CC[C@]43C)[C@H]12 [ASIATIC ACID]
- Activity (OVCAR-3): 50%
- Activity (SK-OV-3 [16]): 50%

Structure (SMILES): CC(=O)OC[C@@]1(C)[C@@H]2CC[C@]3(C)[C@H](C(=O)C=C4[C@@H]5[C@@H](C)[C@H](C)CC[C@]5(C(=O)Nc5ccccc5CO)CC[C@]43C)[C@@]2(C)C[C@@H](OC(C)=O)[C@@H]1OC(C)=O
- IC50 (HepG2 [17]): 2.2 µM
- IC50 (SGC-7901 [18]): 3.2 µM

Structure (SMILES): CCOP(=O)(OCC)C(NC(=O)[C@]12CC[C@@H](C)[C@H](C)[C@H]1C1=CC[C@@H]3[C@@]4(C)C[C@@H](OC(C)=O)[C@H](OC(C)=O)[C@@](C)(COC(C)=O)[C@@H]4CC[C@@]3(C)[C@]1(C)CC2)c1ccccc1Cl (stereo not given in full)
- IC50 (HCT-116 [19]): 26.1 µM
- IC50 [20]: 15 µM
- IC50 (SK-OV-3 [21]): 27.5 µM

Structure (SMILES): COC(=O)C1CCCN1C(=O)[C@]12CC[C@@H](C)[C@H](C)[C@H]1C1=CC[C@@H]3[C@@]4(C)C[C@@H](OC(C)=O)[C@H](OC(C)=O)[C@@](C)(COC(C)=O)[C@@H]4CC[C@@]3(C)[C@]1(C)CC2 (stereo not given in full)
- IC50 (B16-F10): 4.2 µM

Structure (SMILES): C[C@H]1[C@H](C)CC[C@]2(C(=O)Nc3ccccc3)CC[C@]3(C)C(=CC[C@@H]4[C@@]5(C)C[C@@H](OS(N)(=O)=O)[C@H](OS(N)(=O)=O)[C@@](C)(COS(N)(=O)=O)[C@@H]5CC[C@]43C)[C@H]12
- Ki (Carbonic anhydrase 9): 0.0258 µM
- Ki (Carbonic anhydrase 1): 5.23 µM
- Ki (Carbonic anhydrase 2): 0.298 µM
- Ki [22]: 0.0362 µM

Structure (SMILES): CC(=O)OC[C@@]1(C)[C@@H]2CC[C@]3(C)[C@H](CC=C4[C@@H]5[C@@H](C)[C@H](C)CC[C@]5(C(=O)NO)CC[C@]43C)[C@@]2(C)C[C@@H](OC(C)=O)[C@@H]1OC(C)=O
- IC50 (HT-29 [23]): 4.12 µM

Structure (SMILES): COc1cccc(NC(=O)[C@]23CC[C@@H](C)[C@H](C)[C@H]2C2=CC[C@@H]4[C@@]5(C)CC6=NCCN=C6[C@@](C)(C=O)[C@@H]5CC[C@@]4(C)[C@]2(C)CC3)c1
- IC50 (HepG2 [24]): 4.18 µM
- IC50 (SGC-7901 [25]): 3.96 µM
